molecular target: USP1 (Homo sapiens, UniProt O94782); assay: Biochemical Assay for USP1 Inhibition (Ub-Rho 110 fluorescence); conditions: Table 5; 30 min preincubation, Enzyme 0.025 nM, Substrate Ub-Rho 110 25 nM; read-out: IC50 (μm)
Description: The assay was performed in a final volume of 6 μL in assay buffer containing 20 mM Tris-HCl pH 8.0, (1 M Tris-HCl, pH 8.0 solution; Corning 46-031-CM), 1 mM GSH (L-glutathione reduced, Sigma-Aldrich, G4251-100G), 0.03% BGG (0.22 μM filtered, Sigma, G7516-25G), and 0.01% Triton X-100 (Sigma, T9284-10L). Nanoliter quantities of 10-point, 3-fold serial dilution in DMSO were pre-dispensed into 1536 assay plates (Corning, #3724BC) for a final test concentration of 25 μM to 1.3 nM, top to lowest dose, respectively. Concentration and incubation times were optimized for the maximal signal-to-background while maintaining initial velocity conditions at a fixed substrate concentration (<<Km). 3 μL of 2× Enzyme was added to assay plates (pre-stamped with compound), preincubated for 30 min, and then treated with 3 μL of 2× Substrate (Ub-Rho 110, UbiQ-126). Final concentrations of Enzyme and Substrate are 0.025 nM and 25 nM, respectively. Plates were read using a kinetic protocol continuously for 11 min on the Envision (Perkin Elmer) or PheraSTAR (BMG), excitation at 485 nm and emission at 535 nm or excitation at 520 nm and emission at 590 nm. For all assay formats, data were reported as percent inhibition compared with control wells based on the following equation: % inh=100*([…]), where FLU=measured Fluorescence, AveLow=average Fluorescence of no enzyme control (n=32), and AveHigh=average Fluorescence of DMSO control (n=32). IC50 values were determined by curve fitting of the standard 4 parameter logistic fitting algorithm included in the Activity Base software package: TDBS XE Designer Model205. Data is fitted using the Levenburg Marquardt algorithm.
In Table 5, absolute stereochemistry has not been determined for some Compounds. Accordingly, assignment ofany Compounds as the “R” or “S” stereoisomer is arbitrary, unless otherwise noted. In some cases, Compounds are labeled with “1st eluting isomer”, “2nd eluting isomer”, etc. based on the purification method used to separate the stereoisomers.

Sequence of USP1 (O94782 whole entry): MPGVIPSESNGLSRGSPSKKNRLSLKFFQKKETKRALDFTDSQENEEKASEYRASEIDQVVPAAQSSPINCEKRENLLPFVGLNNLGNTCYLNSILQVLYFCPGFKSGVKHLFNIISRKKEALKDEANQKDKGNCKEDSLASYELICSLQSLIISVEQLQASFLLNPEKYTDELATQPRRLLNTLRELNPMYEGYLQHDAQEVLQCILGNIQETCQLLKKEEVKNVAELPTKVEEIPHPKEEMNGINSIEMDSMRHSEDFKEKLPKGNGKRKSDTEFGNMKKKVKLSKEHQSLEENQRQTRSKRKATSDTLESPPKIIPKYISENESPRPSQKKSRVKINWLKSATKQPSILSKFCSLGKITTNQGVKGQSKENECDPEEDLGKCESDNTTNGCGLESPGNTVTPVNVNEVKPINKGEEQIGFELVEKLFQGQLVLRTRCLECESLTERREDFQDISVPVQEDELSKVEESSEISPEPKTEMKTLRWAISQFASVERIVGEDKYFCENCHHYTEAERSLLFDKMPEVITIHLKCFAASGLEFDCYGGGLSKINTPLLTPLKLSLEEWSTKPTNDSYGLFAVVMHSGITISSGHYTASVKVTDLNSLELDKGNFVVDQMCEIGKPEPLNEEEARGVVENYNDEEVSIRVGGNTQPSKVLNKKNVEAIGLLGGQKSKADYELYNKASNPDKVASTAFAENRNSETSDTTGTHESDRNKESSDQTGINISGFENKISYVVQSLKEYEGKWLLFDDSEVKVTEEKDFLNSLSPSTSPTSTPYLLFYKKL
Sequence of USP1 (Q8TAF3 whole entry partner): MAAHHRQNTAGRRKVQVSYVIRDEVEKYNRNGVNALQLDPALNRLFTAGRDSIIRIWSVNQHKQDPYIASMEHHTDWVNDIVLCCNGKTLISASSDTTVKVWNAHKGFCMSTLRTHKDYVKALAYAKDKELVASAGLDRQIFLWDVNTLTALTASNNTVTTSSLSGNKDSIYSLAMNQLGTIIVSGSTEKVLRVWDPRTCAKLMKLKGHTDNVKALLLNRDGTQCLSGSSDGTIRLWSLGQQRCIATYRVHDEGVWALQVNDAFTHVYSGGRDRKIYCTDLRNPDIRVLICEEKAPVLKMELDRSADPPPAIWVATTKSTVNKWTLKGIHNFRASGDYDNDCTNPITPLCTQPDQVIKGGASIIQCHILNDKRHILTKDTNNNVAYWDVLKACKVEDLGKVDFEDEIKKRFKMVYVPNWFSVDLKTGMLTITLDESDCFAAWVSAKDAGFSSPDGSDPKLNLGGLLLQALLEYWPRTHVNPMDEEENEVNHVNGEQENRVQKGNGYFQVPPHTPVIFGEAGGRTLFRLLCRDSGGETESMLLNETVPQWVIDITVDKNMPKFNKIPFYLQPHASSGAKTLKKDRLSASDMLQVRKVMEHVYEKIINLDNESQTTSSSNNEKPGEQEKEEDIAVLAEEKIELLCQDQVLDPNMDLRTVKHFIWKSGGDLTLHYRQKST

Row | Structure (SMILES) | IC50
1 | Cc1nc(-c2cccnc2C(C)C)c2n1CCN(c1ccc(C(=O)N3CCC[C@@H]3C)cc1)C2 [Compound 55, 3-(3-methyl-7-{4-[(2S)-2-methylpyrrolidine-1-carbonyl]phenyl}-5H,6H,7H,8H-imidazo[1,5-a]pyrazin-1-yl)-2-(propan-2-yl)pyridine] | 1 to 10 µM
2 | Cc1nc(-c2cccnc2C(C)C)c2n1C(C)CN(c1ccc(-c3nc(C(F)(F)F)cn3C)cc1)C2 (centres unmarked) [Compound 56, 3-(3,5-dimethyl-7-{4-[1-methyl-4-(trifluoromethyl)-1H-imidazol-2-yl]phenyl}-5H,6H,7H,8H-imidazo[1,5-a]pyrazin-1-yl)-2-(propan-2-yl)pyridine] | ≤ 1 µM
3 | Cc1nc(-c2cccnc2C(C)C)c2n1CCN(c1ccc(C(=O)NCC3CC3)cc1)C2 [Compound 57, N-(cyclopropylmethyl)-4-{3-methyl-1-[2-(propan-2-yl)pyridin-3-yl]-5H,6H,7H,8H-imidazo[1,5-a]pyrazin-7-yl}benzamide] | > 25 µM
4 | Cc1nc(-c2cccnc2C(C)C)c2n1CCN(c1ccc(C(=O)N(C)CC(F)(F)F)cc1)C2 [Compound 58, N-methyl-4-{3-methyl-1-[2-(propan-2-yl)pyridin-3-yl]-5H,6H,7H,8H-imidazo[1,5-a]pyrazin-7-yl}-N-(2,2,2-trifluoroethyl)benzamide] | 1 to 10 µM
5 | Cc1nc(-c2cccnc2C(C)C)c2n1CCN(c1ccc(NC(=O)C3CC3)cc1)C2 [Compound 59, N-(4-{3-methyl-1-[2-(propan-2-yl)pyridin-3-yl]-5H,6H,7H,8H-imidazo[1,5-a]pyrazin-7-yl}phenyl)cyclopropanecarboxamide] | 1 to 10 µM
6 | Cc1nc(-c2cccnc2C(C)C)c2n1CCN(c1cccc(C(=O)N(C)C3CC3)c1)C2 [Compound 60, N-cyclopropyl-N-methyl-3-{3-methyl-1-[2-(propan-2-yl)pyridin-3-yl]-5H,6H,7H,8H-imidazo[1,5-a]pyrazin-7-yl}benzamide] | > 25 µM
7 | Cc1nc(-c2cccnc2C(C)C)c2n1CCN(c1cccc(C(=O)N3CCC[C@H]3C)c1)C2 [Compound 61, 3-(3-methyl-7-{3-[(2R)-2-methylpyrrolidine-1-carbonyl]phenyl}-5H,6H,7H,8H-imidazo[1,5-a]pyrazin-1-yl)-2-(propan-2-yl)pyridine] | > 25 µM
8 | Cc1nc(-c2cccnc2C(C)C)c2n1CCN(c1cccc(C(=O)N3CCC[C@@H]3C)c1)C2 [Compound 62, 3-(3-methyl-7-{3-[(2S)-2-methylpyrrolidine-1-carbonyl]phenyl}-5H,6H,7H,8H-imidazo[1,5-a]pyrazin-1-yl)-2-(propan-2-yl)pyridine] | > 25 µM
9 | COCCn1cc(C(F)(F)F)nc1-c1ccc(N2CCn3c(C)nc(-c4cccnc4C(C)C)c3C2)cc1 [Compound 63, 3-(7-{4-[1-(2-methoxyethyl)-4-(trifluoromethyl)-1H-imidazol-2-yl]phenyl}-3-methyl-5H,6H,7H,8H-imidazo[1,5-a]pyrazin-1-yl)-2-(propan-2-yl)pyridine] | ≤ 1 µM
10 | Cc1nc(-c2cccnc2C(C)C)c2n1CCN(c1ccc(-c3nc(CO)co3)cc1)C2 [Compound 64, [2-(4-{3-methyl-1-[2-(propan-2-yl)pyridin-3-yl]-5H,6H,7H,8H-imidazo[1,5-a]pyrazin-7-yl}phenyl)-1,3-oxazol-4-yl]methanol] | 10 to 25 µM
11 | Cc1cnc(-c2ccc(N3CCn4c(C)nc(-c5cccnc5C(C)C)c4C3)cc2)o1 [Compound 65, 3-{3-methyl-7-[4-(5-methyl-1,3-oxazol-2-yl)phenyl]-5H,6H,7H,8H-imidazo[1,5-a]pyrazin-1-yl}-2-(propan-2-yl)pyridine] | ≤ 1 µM
12 | Cc1nc(-c2cccnc2C(C)C)c2n1CCN(c1ccc(-c3ncn(C)n3)cc1)C2 [Compound 66, 3-{3-methyl-7-[4-(1-methyl-1H-1,2,4-triazol-3-yl)phenyl]-5H,6H,7H,8H-imidazo[1,5-a]pyrazin-1-yl}-2-(propan-2-yl)pyridine] | 10 to 25 µM
13 | Cc1nc(-c2cccnc2C(C)C)c2n1CCN(c1ccc(-n3nccn3)cc1)C2 [Compound 67, 3-{3-methyl-7-[4-(2H-1,2,3-triazol-2-yl)phenyl]-5H,6H,7H,8H-imidazo[1,5-a]pyrazin-1-yl}-2-(propan-2-yl)pyridine] | 1 to 10 µM
14 | Cc1nc(-c2cccnc2C(C)C)c2n1CCN(c1ccc(-c3nc(Cl)cn3C)cc1)C2 [Compound 68, 3-{7-[4-(4-chloro-1-methyl-1H-imidazol-2-yl)phenyl]-3-methyl-5H,6H,7H,8H-imidazo[1,5-a]pyrazin-1-yl}-2-(propan-2-yl)pyridine] | ≤ 1 µM
15 | Cc1nc(-c2cccnc2C(C)C)c2n1CCN(c1ccc(-c3cnn(CC(C)C)c3)cc1)C2 [Compound 69, 3-(3-methyl-7-{4-[1-(2-methylpropyl)-1H-pyrazol-4-yl]phenyl}-5H,6H,7H,8H-imidazo[1,5-a]pyrazin-1-yl)-2-(propan-2-yl)pyridine] | 1 to 10 µM
16 | COCCn1cc(-c2ccc(N3CCn4c(C)nc(-c5cccnc5C(C)C)c4C3)cc2)cn1 [Compound 70, 3-(7-{4-[1-(2-methoxyethyl)-1H-pyrazol-4-yl]phenyl}-3-methyl-5H,6H,7H,8H-imidazo[1,5-a]pyrazin-1-yl)-2-(propan-2-yl)pyridine] | 10 to 25 µM
17 | Cc1nc(-c2cccnc2C(C)C)c2n1CCN(c1ccc(-c3cnn(C4COC4)c3)cc1)C2 [Compound 71, 3-(3-methyl-7-{4-[1-(oxetan-3-yl)-1H-pyrazol-4-yl]phenyl}-5H,6H,7H,8H-imidazo[1,5-a]pyrazin-1-yl)-2-(propan-2-yl)pyridine] | > 25 µM
18 | Cc1nc(-c2cccnc2C(C)C)c2n1CCN(c1ccc(-c3nc(C(F)(F)F)cn3C3CN(C)C3)cc1)C2 [Compound 73, 3-(3-methyl-7-{4-[1-(1-methylazetidin-3-yl)-4-(trifluoromethyl)-1H-imidazol-2-yl]phenyl}-5H,6H,7H,8H-imidazo[1,5-a]pyrazin-1-yl)-2-(propan-2-yl)pyridine] | ≤ 1 µM
19 | Cc1nc(-c2cccnc2C(C)C)c2n1CCN(c1ccc(-c3cnn(C4CCOCC4)c3)cc1)C2 [Compound 74, 3-(3-methyl-7-{4-[1-(oxan-4-yl)-1H-pyrazol-4-yl]phenyl}-5H,6H,7H,8H-imidazo[1,5-a]pyrazin-1-yl)-2-(propan-2-yl)pyridine] | 10 to 25 µM
20 | Cc1nc(-c2cccnc2C(C)C)c2n1CCN(c1ccc(-c3nc(C(F)(F)F)cn3C)nc1)C2 [Compound 75, 5-{3-methyl-1-[2-(propan-2-yl)pyridin-3-yl]-5H,6H,7H,8H-imidazo[1,5-a]pyrazin-7-yl}-2-[1-methyl-4-(trifluoromethyl)-1H-imidazol-2-yl]pyridine] | ≤ 1 µM
21 | Cc1nc(-c2cccnc2C(C)C)c2n1CCN(c1ccc(-c3nc(C(F)(F)F)cn3C3CC3)cc1)C2 [Compound 76, 3-(7-{4-[1-cyclopropyl-4-(trifluoromethyl)-1H-imidazol-2-yl]phenyl}-3-methyl-5H,6H,7H,8H-imidazo[1,5-a]pyrazin-1-yl)-2-(propan-2-yl)pyridine] | ≤ 1 µM
22 | Cc1cn(C)c(-c2ccc(N3CCn4c(C)nc(-c5cccnc5C(C)C)c4C3)cc2)n1 [Compound 77, 3-{7-[4-(1,4-dimethyl-1H-imidazol-2-yl)phenyl]-3-methyl-5H,6H,7H,8H-imidazo[1,5-a]pyrazin-1-yl}-2-(propan-2-yl)pyridine] | ≤ 1 µM
23 | Cc1nc(-c2cccnc2OC(F)F)c2n1CCN(c1ccc(-n3ccc(C(F)(F)F)n3)cc1)C2 [Compound 78, 2-(difluoromethoxy)-3-(3-methyl-7-{4-[3-(trifluoromethyl)-1H-pyrazol-1-yl]phenyl}-5H,6H,7H,8H-imidazo[1,5-a]pyrazin-1-yl)pyridine] | ≤ 1 µM
24 | Cc1nc(-c2cccnc2C(C)C)c2n1CCN(c1cnc(-c3nc(C(F)(F)F)cn3C)cn1)C2 [Compound 79, 2-{3-methyl-1-[2-(propan-2-yl)pyridin-3-yl]-5H,6H,7H,8H-imidazo[1,5-a]pyrazin-7-yl}-5-[1-methyl-4-(trifluoromethyl)-1H-imidazol-2-yl]pyrazine] | ≤ 1 µM
25 | Cc1nc(-c2cccnc2C(C)C)c2n1CCN(c1ccc(-c3nc(C4CC4)cn3C)cc1)C2 [Compound 80, 3-{7-[4-(4-cyclopropyl-1-methyl-1H-imidazol-2-yl)phenyl]-3-methyl-5H,6H,7H,8H-imidazo[1,5-a]pyrazin-1-yl}-2-(propan-2-yl)pyridine] | ≤ 1 µM
26 | Cc1cc(Cl)nn1-c1ccc(N2CCn3c(C)nc(-c4cccnc4OC(F)F)c3C2)cc1 [Compound 81, 3-{7-[4-(3-chloro-5-methyl-1H-pyrazol-1-yl)phenyl]-3-methyl-5H,6H,7H,8H-imidazo[1,5-a]pyrazin-1-yl}-2-(difluoromethoxy)pyridine] | ≤ 1 µM
